Tests used:
[1] = molecular target: human p38α (Homo sapiens, UniProt Q16539); assay: Purified and activated recombinant human p38α HTRF kinase assay; format: biochemical; details: 1 nM p38α, 50 μM ATP, 100 nM GST-ATF2-Avitag, 1 hour at RT; read-out: p38a IC50
Description: Purified and Activated Recombinant Human p38α Aassay
Kinase Reaction Buffer: Kinase reaction buffer for p38α HTRF assays consists of 50 mM Tris-pH 7.5, 5 mM MgCl2, 0.1 mg/mL BSA, 100 μM Na3VO4 and 0.5 mM DTT.
HTRF Detection Buffer: HTRF detection buffer contains 100 mM HEPES-pH 7.5, 100 mM NaCl, 0.1% BSA, 0.05% Tween-20, and 10 mM EDTA.
Serial Dilution of Compounds: Compounds were dissolved in 100% DMSO and serially diluted (3 fold, 10 point) in a polypropylene 96-well microtiter plate (drug plate). The final starting concentration of compounds in the p38a enzymatic assays was 1 μM. Columns 6 and 12 (HI controls and LO controls respectively) in the drug plate were reserved as controls and contained only DMSO. Kinase Reaction: The p38α kinase reactions were carried out in a polypropylene 96-well black round bottom assay plate in total volume of 30 μL kinase reaction buffer. Appropriate concentration of purified and activated enzyme (recombinant human) was mixed with indicated concentration of ATP and 100 nM GST-ATF2-Avitag, in the presence or absence (HI control) of Compound. See table below for actual concentrations. In the absence of substrate, the background was measured as LO control. The reaction was allowed to incubate for 1 hour at RT. Assay Reagent Concentrations: The final reagent concentrations were 1 nM p38α and 50 μM ATP. The Km for ATP of the enzyme was 103 μM, giving a ratio of ATP concentration to Km of 0.49. […] After 60 minutes incubation at room temperature, the assay plate was read in a Discovery Plate Reader. The wells were excited with coherent 320 nm light and the ratio of delayed ([…] post excitation) emissions at […] (native europium fluorescence) and 665 nm (europium fluorescence transferred to allophycocyanin—an index of substrate phosphorylation) was determined (Park et al, 1999). Data Analysis: The proportion of substrate phosphorylated in the kinase reaction in the presence of compound compared with that phosphorylated in the presence of DMSO vehicle alone (HI control) was calculated using the formula: % control (POC)=(compound−average LO)/(average HI−average LO)*100. Data (consisting of POC and inhibitor concentration in μM) was fitted to a 4-parameter equation (y=A+((B−A)/(1+((x/C)^D))), where A is the minimum y (POC) value, B is the maximum y (POC), C is the x (compound concentration) at the point of inflection and D is the slope factor, using a Levenburg-Marquardt non-linear regression algorithm.
The inhibition constant (Ki) of the inhibitor was estimated from the IC50 (compound concentration at the point of inflection C) using the Cheng-Prussof equation: Ki=IC50/(1+S/Km), where S is the ATP substrate concentration, and Km is the Michaelis constant for ATP as determined experimentally. All results were expressed as the mean±the standard error of the mean. Data acquisition and non-linear regression algorithms were performed using Activity Base v5.2 and XL-fit software v4.1 respectively. All data was archived using Activity Base v5.2 software.

[2] = tested on: TNF-α induced IL-8 in 50% human whole blood; assay: Inhibition of TNF-α induced IL-8 in 50% human whole blood; format: cell-based; details: 50% human whole blood activated with 1 nM TNF-α, secreted IL-8, 16-18 hours; read-out: WB TNF/IL8 IC50
Description: Inhibition of TNF-α Induced IL-8 in 50% Human Whole Blood
Test compounds were evaluated in vitro for the ability to inhibit the production of secreted IL-8 by whole blood activated with TNF-α. Fresh human whole blood was obtained from healthy, non-medicated volunteers in sodium heparin tubes.
Compound Dilution—Assay Procedure
Test compounds are serially diluted 1:3 in DMSO and then diluted 1:250 into R10 (RPMI 1640, 10% human serum AB, 1× pen/strep/glutamine) to the 4× working concentration to be used in the assay. 100 ul heparinized whole blood is plated into wells of 96 well flat bottom plates. 50 ul of either 4× compound or DMSO control (Final DMSO concentration is 0.1%) are added to the appropriate wells. Plates are incubated for 1 hour at 37 degrees Celsius. 50 ul of 4× TNF-α (4 nM TNF-α, for a final concentration of 1 nM) or control (media alone) is added to the appropriate wells (Total volume=200 ul). Plates are incubated overnight (16-18 hours). 100 ul of supernatant is collected and stored in 96-well round bottom polypropylene plates at −80 degrees Celsius or assayed immediately for IL-8.
Cytokines are measured on antibody (Ab) sandwich ECL based 96-well detection plates. 20 ul of supernatant are added to plate and plate is sealed and shaken at RT for 1 hour. 130 ul of detection Ab cocktail is added and plates are sealed and shaken for 1 hour in the dark at RT. Plates are read on MSD Sector HTS instrument. Data are analyzed and IC50 values generated using Activity Base and Xl-fit programs.

Sequence of human p38α (Q16539 whole entry): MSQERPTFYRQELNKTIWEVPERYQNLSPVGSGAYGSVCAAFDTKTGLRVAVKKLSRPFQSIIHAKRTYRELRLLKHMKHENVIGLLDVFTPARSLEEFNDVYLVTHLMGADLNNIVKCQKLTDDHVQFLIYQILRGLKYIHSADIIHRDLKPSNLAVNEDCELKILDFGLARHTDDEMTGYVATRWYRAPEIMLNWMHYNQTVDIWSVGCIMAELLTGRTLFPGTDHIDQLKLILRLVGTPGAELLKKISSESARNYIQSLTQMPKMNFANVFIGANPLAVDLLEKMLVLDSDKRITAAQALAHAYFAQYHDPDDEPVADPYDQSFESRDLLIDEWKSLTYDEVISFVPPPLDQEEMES

Row | IC50 [1] [nM] | IC50 [2] [nM] | Compound
1 | 3.3 | 7.3 | Cc1ccc(C(=O)NC2CC2)cc1-c1nc2cnn(-c3c(F)cccc3F)c2n(C)c1=O [Example 3, N-cyclopropyl-3-(1-(2,6-difluorophenyl)-7-methyl-6-oxo-6,7-dihydro-1H-pyrazolo[3,4-b]pyrazin-5-yl)-4-methylbenzamide]
2 | 10 | 3.7 | Cc1ccc(C(=O)Nc2ccon2)cc1-c1nc2cnn(-c3c(F)cccc3F)c2n(C)c1=O [Example 10, 3-(1-(2,6-difluorophenyl)-7-methyl-6-oxo-6,7-dihydro-1H-pyrazolo[3,4-b]pyrazin-5-yl)-N-3-isoxazolyl-4-methylbenzamide]
3 | 1.2 | 3.2 | Cc1c(F)cc(C(=O)Nc2ccon2)cc1-c1nc2cnn(-c3c(F)cccc3F)c2n(C)c1=O [Example 6, 3-(1-(2,6-difluorophenyl)-7-methyl-6-oxo-6,7-dihydro-1H-pyrazolo[3,4-b]pyrazin-5-yl)-5-fluoro-N-3-isoxazolyl-4-methylbenzamide]
4 | 34 | 25 | Cc1c(F)cc(C(=O)NC2CC2)cc1-c1nc2cnn(-c3ccc(F)cc3F)c2n(C)c1=O [Example 7, N-cyclopropyl-3-(1-(2,4-difluorophenyl)-7-methyl-6-oxo-6,7-dihydro-1H-pyrazolo[3,4-b]pyrazin-5-yl)-5-fluoro-4-methylbenzamide]
5 | 1.8 | 10.7 | Cc1c(F)cc(C(=O)NC2CC2)cc1-c1nc2cnn(-c3c(F)cccc3F)c2n(C)c1=O [Example 1, N-Cyclopropyl-3-(1-(2,6-difluorophenyl)-7-methyl-6-oxo-6,7-dihydro-1H-pyrazolo[4,3-b]pyrazin-5-yl)-5-fluoro-4-methylbenzamide]
6 | 22 | 23 | CCn1c(=O)c(-c2cc(C(N)=O)cc(F)c2C)nc2cnn(-c3c(F)cccc3F)c21 [Example 12, 3-(1-(2,6-difluorophenyl)-7-ethyl-6-oxo-6,7-dihydro-1H-pyrazolo[3,4-b]pyrazin-5-yl)-5-fluoro-4-methylbenzamide]
7 | 1.4 | 5.8 | CCn1c(=O)c(-c2cc(C(=O)NC3CC3)ccc2C)nc2cnn(-c3c(F)cccc3F)c21 [Example 5, N-cyclopropyl-3-(1-(2,6-difluorophenyl)-7-ethyl-6-oxo-6,7-dihydro-1H-pyrazolo[3,4-b]pyrazin-5-yl)-4-methylbenzamide]
8 | 8.5 | 41 | Cc1ccc(C(N)=O)cc1-c1nc2cnn(-c3c(F)cccc3F)c2n(C)c1=O [Example 4, 3-(1-(2,6-difluorophenyl)-7-methyl-6-oxo-6,7-dihydro-1H-pyrazolo[3,4-b]pyrazin-5-yl)-4-methylbenzamide]
9 | 5 | 8.4 | CCn1c(=O)c(-c2cc(C(=O)NC3CC3)cc(F)c2C)nc2cnn(-c3ccc(F)cc3F)c21 [Example 9, N-cyclopropyl-3-(1-(2,4-difluorophenyl)-7-ethyl-6-oxo-6,7-dihydro-1H-pyrazolo[3,4-b]pyrazin-5-yl)-5-fluoro-4-methylbenzamide]
10 | 2.3 | 3 | CCn1c(=O)c(-c2cc(C(=O)NC3CC3)cc(F)c2C)nc2cnn(-c3c(F)cccc3F)c21 [Example 11, N-cyclopropyl-3-(1-(2,6-difluorophenyl)-7-ethyl-6-oxo-6,7-dihydro-1H-pyrazolo[3,4-b]pyrazin-5-yl)-5-fluoro-4-methylbenzamide]
11 | 2.5 | 6.1 | CCn1c(=O)c(-c2cc(C(=O)Nc3ccon3)cc(F)c2C)nc2cnn(-c3ccc(F)cc3F)c21 [Example 2, 3-(1-(2,4-Difluorophenyl)-7-ethyl-6-oxo-6,7-dihydro-1H-pyrazolo[4,3-b]pyrazin-5-yl)-5-fluoro-N-(isoxazol-3-yl)-4-methylbenzamide]
12 | 4.6 | 13 | Cc1c(F)cc(C(=O)Nc2ccon2)cc1-c1nc2cnn(-c3ccc(F)cc3F)c2n(C)c1=O [Example 8, 3-(1-(2,4-difluorophenyl)-7-methyl-6-oxo-6,7-dihydro-1H-pyrazolo[3,4-b]pyrazin-5-yl)-5-fluoro-N-3-isoxazolyl-4-methylbenzamide]
13 | 0.7 | 1.2 | CCn1c(=O)c(-c2cc(C(=O)Nc3ccon3)ccc2C)nc2cnn(-c3c(F)cccc3F)c21 [Example 13, 3-(1-(2,6-difluorophenyl)-7-ethyl-6-oxo-6,7-dihydro-1H-pyrazolo[3,4-b]pyrazin-5-yl)-N-3-isoxazolyl-4-methylbenzamide]

— patent publication US8367671B2, “Pyrazolo[3.4-B]pyrazine compounds as p38 modulators and methods of use as anti-inflamatory agents” (Amgen Inc., priority 2008, dated 2013)
